# Patent EP4803080A1, “METHOD FOR TREATING LEUKEMIA” (Shenzhen TargetRx Co., Ltd., priority 2023, dated 2025)
# System: accelerated phase (AP) chronic myeloid leukemia (CML)
# Assay: Phase I dose escalation and dose expansion clinical trial: efficacy in CML-AP subjects
# Format: in vivo, humans
# Text: This study is a single-arm, open-label, dose-escalation and dose-expansion Phase I clinical trial.
# The dose-escalation phase of this trial consists of about 8 dose groups, with oral administration under fasting conditions. Subjects in all dose groups will receive a single dose on Day 1 (D1), followed by pharmacokinetic (PK) and tolerability observations. […] After entering the multiple-dose period, subjects in the first dose group will initially receive twice-daily (BID) dosing (if PK data from the single-dose period are available, the dosing frequency during the multiple-dose period may be adjusted based on the PK data). The dosing frequency for subjects in subsequent dose groups after entering the multiple-dose period will be determined based on available PK and tolerability data. Throughout the trial, dosing frequency for all subjects may be adjusted based on continuously updated safety and PK data.
# A continuous reassessment method (CRM) based on the principle of the escalation with overdose control (EWOC) design will be used to recommend the next specific dose for each dose escalation, thereby completing dose escalation and determining the maximum tolerated dose (MTD). If both the investigator and sponsor believe that higher dose groups may offer better efficacy and manageable safety, the EWOC-based CRM method may be used to explore higher doses. All enrolled subjects will receive long-term treatment with the test drug and undergo evaluations for safety, tolerability, and preliminary efficacy.
# After obtaining certain research data from the dose-escalation phase, the investigator may comprehensively consider safety, efficacy, and other information to decide whether to enroll additional subjects at the MTD and/or lower dose levels to determine the recommended Phase II dose (RP2D). Two to four suitable dosing regimens will be selected for expansion in the target population (including subjects enrolled at the target dose levels during the escalation phase).
# A total of 8 dose groups were established: 10 mg bid, 20 mg bid, 40 mg bid, 80 mg bid, 40 mg qd, 80 mg qd, 160 mg qd, and 240 mg qd.
# The dose expansion phase was conducted in the following 3 cohorts: • Cohort 1: Subjects with chronic phase (CP) chronic myeloid leukemia (CML) who had previously received at least ≥2 different TKIs and were T315I-negative. A total of 3 dose groups were established: 40 mg qd, 80 mg qd, and 240 mg qd; • Cohort 2: Subjects with chronic phase (CP) chronic myeloid leukemia (CML) who have previously received ≥1 TKI and were T315I-positive. A total of 2 dose groups were established: 40 mg qd and 240 mg qd; • Cohort 3: Subjects with accelerated phase (AP) chronic myeloid leukemia (CML) who have previously received ≥1 TKI, regardless of T315I positivity. A total of 1 dose group was established: 240 mg qd.
# [1] = CML-AP subjects previously treated with ponatinib, olverembatinib, asciminib, and/or HS-10382, as of June 2, 2024
# [2] = CML-AP subjects, all doses, 44 evaluable, as of August 24, 2023
# [3] = CML-AP subjects, 42 evaluable, as of June 2, 2024
# [4] = CML-AP subjects, as of August 24, 2023
# [5] = CML-AP subjects, as of June 2, 2024
# [6] = CML-AP, failed or intolerant to third or above generations of TKI therapy
# [7] = CML-AP, failed or intolerant to third or above generations of TKI therapy, 28 evaluable
# [8] = CML-AP, failed or intolerant to third or above generations of TKI therapy, Kaplan-Meier method
# [9] = CML-AP, 10 mg BID, 1 evaluable subject, as of August 24, 2023
# [10] = CML-AP, 20 mg BID, 3 evaluable subjects, as of August 24, 2023
# [11] = CML-AP, 40 mg BID, 4 evaluable subjects, as of August 24, 2023
# [12] = CML-AP, 40 mg QD, 2 evaluable subjects, as of August 24, 2023
# [13] = CML-AP, 40 mg/day Total, 5 evaluable subjects, as of August 24, 2023
# [14] = CML-AP, 80 mg BID, 0 evaluable subjects, as of August 24, 2023
# [15] = CML-AP, 80 mg QD, 4 evaluable subjects, as of August 24, 2023
# [16] = CML-AP, 80 mg/day Total, 8 evaluable subjects, as of August 24, 2023
# [17] = CML-AP, 160 mg QD, 3 evaluable subjects, as of August 24, 2023
# [18] = CML-AP, 160 mg/day Total, 3 evaluable subjects, as of August 24, 2023
# [19] = CML-AP, 240 mg QD, 27 evaluable subjects, as of August 24, 2023
# [20] = CML-AP, Total, all dose groups, 44 evaluable subjects, as of August 24, 2023
compound,measurement,setting,value
"O=C(Nc1ccc(OC(F)(F)Cl)cc1)c1cnc(N2CC[C@@H](F)C2)c(-c2cnccn2)c1 [Compound A, (R)-N-(4-(chlorodifluoromethoxy)phenyl)-6-(3-fluoropyrrolidin-1-yl)-5-(pyrazin-2-yl)nicotinamide]",18-month cumulative incidence rate of CCyR,[1],17%
same,18-month cumulative incidence rate of MCyR,[1],23%
same,CCyR,[2],18.2%
same,MCyR,[2],34.1%
same,MMR,[2],4.5%
same,MaHR,"CML-AP subjects, all doses, 46 evaluable, as of August 24, 2023",84.8%
same,CHR within 3 treatment cycles,[3],79%
same,MaHR within 3 treatment cycles,[3],83%
same,median time to MCyR,[4],"2.76 (0.95, 5.52) months"
same,median time to MMR,[4],"5.54 (2.79, 8.28) months"
same,18-month cumulative incidence of CCyR,[5],30%
same,18-month cumulative incidence of MCyR,[5],35%
same,18-month cumulative incidence of MMR,[5],14%
same,median EFS,[6],8.41 months
same,median PFS,[6],not reached
same,median duration of MaHR response,[6],not reached
same,median time to achieve CCyR,[6],"5.59 (4.16, 6.92) months"
same,median time to achieve MCyR,[6],"2.69 (2.69, 5.55) months"
same,CCyR,[7],14.3%
same,MCyR,[7],25.0%
same,MMR,[7],3.6%
same,MaHR,[7],78.6%
same,12-month EFS rate,[8],42.5%
same,12-month PFS rate,[8],79.9%
same,CCyR,[9],0 n (%)
same,MCyR,[9],0 n (%)
same,MMR,[9],0 n (%)
same,MaHR,[9],1 (100) n (%)
same,CCyR,[10],1 (33.3) n (%)
same,MCyR,[10],1 (33.3) n (%)
same,MMR,[10],0 n (%)
same,MaHR,[10],3 (100) n (%)
same,CCyR,[11],0 n (%)
same,MCyR,[11],1 (25.0) n (%)
same,MMR,[11],0 n (%)
same,MaHR,[11],3 (75.0) n (%)
same,CCyR,[12],0 n (%)
same,MCyR,[12],1 (50.0) n (%)
same,MMR,[12],0 n (%)
same,MaHR,[12],1 (50.0) n (%)
same,CCyR,[13],1 (20.0) n (%)
same,MCyR,[13],2 (40.0) n (%)
same,MMR,[13],0 n (%)
same,MaHR,[13],4 (80.0) n (%)
same,CCyR,[14],0 n (%)
same,MCyR,[14],0 n (%)
same,MMR,[14],0 n (%)
same,MaHR,[14],0 n (%)
same,CCyR,[15],0 n (%)
same,MCyR,[15],0 n (%)
same,MMR,[15],0 n (%)
same,MaHR,[15],3 (75.0) n (%)
same,CCyR,[16],0 n (%)
same,MCyR,[16],1 (12.5) n (%)
same,MMR,[16],0 n (%)
same,MaHR,[16],6 (75.0) n (%)
same,CCyR,[17],0 n (%)
same,MCyR,[17],1 (33.3) n (%)
same,MMR,[17],0 n (%)
same,MaHR,[17],3 (100) n (%)
same,CCyR,[18],0 n (%)
same,MCyR,[18],1 (33.3) n (%)
same,MMR,[18],0 n (%)
same,MaHR,[18],3 (100) n (%)
same,CCyR,[19],7 (25.9) n (%)
same,MCyR,[19],11 (40.7) n (%)
same,MMR,[19],2 (7.4) n (%)
same,MaHR,"CML-AP, 240 mg QD, 29 evaluable subjects, as of August 24, 2023",25 (86.2) n (%)
same,CCyR,[20],8 (18.2) n (%)
same,MCyR,[20],15 (34.1) n (%)
same,MMR,[20],2 (4.5) n (%)
same,MaHR,"CML-AP, Total, all dose groups, 46 evaluable subjects, as of August 24, 2023",39 (84.8) n (%)
